Measurements reported in paper PMC11355573, “A New Renieramycin T Right-Half Analog as a Small Molecule Degrader of STAT3” (Marine Drugs, 2024).

Experiments:
STAT3 mRNA = STAT3 mRNA by Real-time qPCR; assay type: cell-based, human; conditions: H460, 0–2.5 μM, 8 h
Description: (§1) To explore whether the reduction in total STAT3 protein after DH_31 treatments (as shown in Figure 5B–E) occurs at the mRNA or protein levels, we first investigated mRNA levels using Real-time qPCR. […] To evaluate whether DH_31 affects STAT3 stability, pretreatment with MG132, a potent selective proteasome inhibitor, was performed. H460 cells were pretreated with or without MG132 (10 μM) for 1 h and then cells were either treated with DH_31 for 6 h or left untreated. […] The proteasome can recognize and degrade protein targets that are conjugated by single or poly-ubiquitin molecules. To investigate the ubiquitination level of STAT3 with DH_31 treatments, the ubiquitination level was evaluated using immunoprecipitation and Western blot analysis of the STAT3–ubiquitin complex in the lung cancer cells treated with DH_31 and in untreated cells.
Quantitative Real-time PCR was performed to determine the effect of DH_31 on mRNA levels of STAT3 and EMT-related genes. H460 cells (4.0 × 10^5 cells per well) were seeded in 6-well plates. Following overnight incubation, the cells were treated with different concentrations of DH_31 (0–2.5 μM)) for 8 h at 37 °C. After treatment, total RNA was isolated using the RNeasy kit (Qiagen, Germany) and subsequently subjected to cDNA synthesis using qScript cDNA Supermix (Quanta bio, Beverly, MA, USA), following the manufacturers’ protocols. […]

[1] = system: ZO1, Slug, Snail, N-cadherin, Vimentin mRNA in H460 cells; assay: mRNA of EMT markers by Real-time qPCR; assay type: cell-based, human; conditions: H460, 1 μM and 2.5 µM
Description: Therefore, the effect of DH_31 on targeting, the DNA-binding domain of STAT3, may represent an impact on downstream targets at the transcriptional level (Figure 8A). The expression levels of ZO1, Slug, Snail, N-cadherin, and Vimentin were analyzed using Real-time qPCR.
Quantitative Real-time PCR was performed to determine the effect of DH_31 on mRNA levels of STAT3 and EMT-related genes. H460 cells (4.0 × 10^5 cells per well) were seeded in 6-well plates. Following overnight incubation, the cells were treated with different concentrations of DH_31 (0–2.5 μM)) for 8 h at 37 °C. After treatment, total RNA was isolated using the RNeasy kit (Qiagen, Germany) and subsequently subjected to cDNA synthesis using qScript cDNA Supermix (Quanta bio, Beverly, MA, USA), following the manufacturers’ protocols. Real-time qPCR was performed using Luna Universal qPCR Master Mix (NEB, Ipswich, MA, USA) and the CFX 96 Real-time PCR system (Bio-Rad, Hercules, CA, USA). The expression of each cDNA was normalized to that of β-actin, and the comparative Ct method was used to obtain relative expression levels. The primers used for Real-time PCR are shown in the in the Supporting Information, Table S1. The list of primers.

detached H460 cells = assay: Anoikis assay (viability under detachment, MTT); assay type: cell-based, human; conditions: H460, 1 and 2.5 μM, at 12 h (p < 0.01) and 24 h (p < 0.001)
Description: Anoikis, a detachment-induced apoptosis, is a mechanism to prevent metastasis, so resistance to anoikis enhances the potential of metastasis. To confirm that DH_31 induces anoikis, the detached H460 cells were treated with 1 and 2.5 μM of DH_31 for 6, 12, and 24 h.
MTT assay was conducted to ascertain cell viability after treatment with DH-31 under detachment conditions. H292 and H460 cells (5.0 × 10^3 cells per well) were seeded in ultra-low attachment 96-well plates and treated with different concentrations of DH_31 (0–2.5 μM) at 37 °C. At 0, 6, 12, and 24 h of incubation, the cell suspensions were transferred onto regular cell culture plates in growth medium to facilitate attachment. After 3 h, images of cells that survived anoikis and recovered their adherent growth ability were captured with a 10 × objective using an inverted microscope (Olympus IX51 with DP70; OlympusbAmerica Inc., Center valley, PA, USA). Then, the medium in each well was removed and replaced with 100 µL of MTT solution. Cell viability was assessed using MTT assay, following the manufacturers’ protocols. Anoikis resistance was calculated as a percentage compared with the control.

STAT3–ubiquitin complex = biological target: T1, STAT3–ubiquitin complex (Homo sapiens, UniProt P40763); assay: Immunoprecipitation and Western blot of STAT3–ubiquitin complex; assay type: cell-based; conditions: H460, 2.5 µM, 6 h, MG132 10 µM pretreatment, vs untreated cells
T1 construct: endogenous in cells; host or cells: NCI-H460 (ATCC HTB-177)
Description: as §1
Immunoprecipitation assay was performed to investigate ubiquitin–proteasomal degradation, shedding light on the regulatory mechanisms involved. H460 cells (4.0 × 10^5 cells per well) were seeded in 6-well plates. Following overnight incubation, the cells were pretreated with 10 μM of a proteasome inhibitor, MG132, for 1 h to prevent proteasomal degradation, and then were treated with different concentrations of DH_31 (0–2.5 μM) for 6 h. After treatment, the cells were lysed as described above. […]

H460 cells = assay: Wound healing assay (migration); assay type: cell-based, human; conditions: H460, 1 and 2.5 μM, at 48 h and 72 h, vs untreated cells
Description: Wound healing assay was conducted to assess the effects of DH_31 on migration. H292 and H460 cells (4.0–4.2 × 10^4 cells per well) were seeded in 96-well plates. Following overnight incubation, wounds were created by scraping the monolayer cells with a 10 μL pipette tip, and non-adherent cells were washed off with PBS. The cells were treated with different concentrations of DH_31 (0–2.5 μM) in the growth medium containing 1% FBS for 72 h at 37 °C. […] The scratched area was analyzed by using ImageJ™ software (Image J 1.52a, Rasband, W., National Institutes of Health, Bethesda, MD, USA). Cell migration was determined by the rate of cells moving towards the scratched area.

T1 sequence (P40763 2-770 limits assumed, one chain of several): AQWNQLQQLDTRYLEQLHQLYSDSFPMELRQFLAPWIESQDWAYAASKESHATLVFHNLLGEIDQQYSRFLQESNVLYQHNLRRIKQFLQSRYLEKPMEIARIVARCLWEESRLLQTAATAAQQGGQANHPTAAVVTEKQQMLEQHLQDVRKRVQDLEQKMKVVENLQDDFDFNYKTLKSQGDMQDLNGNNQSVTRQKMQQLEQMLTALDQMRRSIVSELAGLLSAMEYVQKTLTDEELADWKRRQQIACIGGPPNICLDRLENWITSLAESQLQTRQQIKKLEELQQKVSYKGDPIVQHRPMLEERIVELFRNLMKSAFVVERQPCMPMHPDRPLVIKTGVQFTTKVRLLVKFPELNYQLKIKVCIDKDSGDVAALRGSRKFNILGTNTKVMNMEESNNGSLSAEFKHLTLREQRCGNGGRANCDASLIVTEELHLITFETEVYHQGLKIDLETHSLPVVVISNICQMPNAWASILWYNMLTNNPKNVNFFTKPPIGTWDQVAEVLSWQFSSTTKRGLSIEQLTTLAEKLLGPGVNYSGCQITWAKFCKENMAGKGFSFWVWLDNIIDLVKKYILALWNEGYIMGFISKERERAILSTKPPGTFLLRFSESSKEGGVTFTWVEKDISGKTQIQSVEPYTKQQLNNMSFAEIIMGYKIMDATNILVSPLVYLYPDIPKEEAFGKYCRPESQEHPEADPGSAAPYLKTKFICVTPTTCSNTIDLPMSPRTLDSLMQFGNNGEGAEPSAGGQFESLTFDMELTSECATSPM

COc1c(C)cc2c(c1O)[C@@H]1CN(Cc3ccc4ccccc4c3)[C@@H](C#N)[C@H](C2)N1C [DH_31, (1R,4R,5S)-10-hydroxy-9-methoxy-8,11-dimethyl-3-(naphthalen-2-ylmethyl)-1,2,3,4,5,6-hexahydro-1,5-epiminobenzo[d]azocine-4-carbonitrile]
mRNA expression of STAT3 (STAT3 mRNA): did not change significantly
ZO1 mRNA expression ([1]; 8 h (p < 0.01)): significant increase
N-cadherin mRNA expression ([1]; 8 h (p < 0.05)): significant reduction
Slug mRNA expression ([1]; 8 h (p < 0.05)): significant reduction
Snail mRNA expression ([1]; 8 h (p < 0.05)): significant reduction
Vimentin mRNA expression ([1]; 8 h (p < 0.05)): significant reduction
cell viability of detached cells (anoikis) (detached H460 cells): significant decrease
STAT3–ubiquitin formation (STAT3–ubiquitin complex): significantly enhanced
cell migration across the wound space (H460 cells): significantly decreased
